Results reported in patent publication US20100137313A1 (ASTRAZENECA AB, priority 2008, published 2010).

These molecules were tested against S. pneumoniae Topoisomerase IV ATPase (ParE) (Streptococcus pneumoniae serotype 4, UniProt Q59961) (assay: S. pneumoniae Topoisomerase IV ATPase inhibition). Settings: values marked * are an average of two or more data points, read-out: % Inh (13 μM) of S. pneumoniae Topoisomerase IV ATPase.
Assay type: biochemical
Outline: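 Phosphate release by ParE ATPase from S. pneumoniae read colorimetrically (malachite green, 650 nm), enzyme 1.25 nM, ATP 160 μM, salmon sperm DNA present, buffer 20 mM Tris pH 8.0 with 8 mM MgCl2. IC50 over 10 compound concentrations, EDTA (20 μM) and DMSO controls defining inhibition range.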

Sequence of S. pneumoniae Topoisomerase IV ATPase (ParE) (Q59961 whole entry): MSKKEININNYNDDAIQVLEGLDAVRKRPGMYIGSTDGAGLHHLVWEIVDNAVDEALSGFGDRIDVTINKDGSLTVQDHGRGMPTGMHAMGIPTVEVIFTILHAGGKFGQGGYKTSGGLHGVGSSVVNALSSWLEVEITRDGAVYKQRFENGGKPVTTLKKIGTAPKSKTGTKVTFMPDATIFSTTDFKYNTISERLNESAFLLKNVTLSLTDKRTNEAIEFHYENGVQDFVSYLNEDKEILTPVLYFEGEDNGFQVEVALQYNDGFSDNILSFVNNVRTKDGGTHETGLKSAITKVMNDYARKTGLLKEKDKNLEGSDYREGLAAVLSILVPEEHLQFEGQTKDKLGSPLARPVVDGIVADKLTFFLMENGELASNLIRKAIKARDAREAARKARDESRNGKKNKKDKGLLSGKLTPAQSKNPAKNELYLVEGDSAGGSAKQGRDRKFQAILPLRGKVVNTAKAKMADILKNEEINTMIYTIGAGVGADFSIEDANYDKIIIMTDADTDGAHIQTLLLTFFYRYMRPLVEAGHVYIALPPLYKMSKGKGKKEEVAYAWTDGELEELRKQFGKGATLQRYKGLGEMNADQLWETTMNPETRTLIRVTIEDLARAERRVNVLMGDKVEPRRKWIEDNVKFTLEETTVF

Row | SMILES | inhibition at 13 µM [%]
1 | COc1cc(F)cc(Nc2ncc(-c3ccc(C(=O)O)o3)c(-n3ccc(C(F)(F)F)n3)n2)c1 [Example 892, 5-(2-(3-fluoro-5-methoxyphenylamino)-4-(3-(trifluoromethyl)-1H-pyrazol-1-yl)pyrimidin-5-yl)furan-2-carboxylic acid] | 100
2 | COc1cc(F)cc(Nc2ncc(-c3cccc(C(=O)O)c3)c(-n3ccc(C(F)(F)F)n3)n2)c1 [Example 893, 3-(2-(3-fluoro-5-methoxyphenylamino)-4-(3-(trifluoromethyl)-1H-pyrazol-1-yl)pyrimidin-5-yl)benzoic acid] | 99
3 | COc1cc(F)cc(Nc2ncc(-c3cnc(OC)c(C(=O)NS(C)(=O)=O)c3)c(-n3ccc(C(F)(F)F)n3)n2)c1 [Example 897, 5-(2-(3-fluoro-5-methoxyphenylamino)-4-(3-(trifluoromethyl)-1H-pyrazol-1-yl)pyrimidin-5-yl)-2-methoxy-N-(methylsulfonyl)nicotinamide] | 100
4 | COc1ncc(-c2cnc(Nc3cc(C)cc(C)c3)nc2-n2ccc(C(F)(F)F)n2)cc1C(=O)NS(C)(=O)=O [Example 898, 5-(2-(3,5-dimethylphenylamino)-4-(3-(trifluoromethyl)-1H-pyrazol-1-yl)pyrimidin-5-yl)-2-methoxy-N-(methylsulfonyl)nicotinamide] | 100
5 | COc1ncc(-c2cnc(Nc3cc(C)cc(C)c3)nc2-n2nc(C(F)(F)F)cc2C)cc1C(=O)NS(C)(=O)=O [Example 899, 5-(2-(3,5-dimethylphenylamino)-4-(5-methyl-3-(trifluoromethyl)-1H-pyrazol-1-yl)pyrimidin-5-yl)-2-methoxy-N-(methylsulfonyl)nicotinamide] | 97
6 | COc1cc(F)cc(Nc2ncc(-c3cnc(OC)c(C(=O)NS(C)(=O)=O)c3)c(-n3nc(C(F)(F)F)cc3C)n2)c1 [Example 900, 5-(2-(3-fluoro-5-methoxyphenylamino)-4-(5-methyl-3-(trifluoromethyl)-1H-pyrazol-1-yl)pyrimidin-5-yl)-2-methoxy-N-(methylsulfonyl)nicotinamide] | 100
7 | COc1cc(Nc2ncc(-c3cnc(OC)c(C(=O)NS(C)(=O)=O)c3)c(-n3ccc(C(F)(F)F)n3)n2)cc(OC)c1 [Example 901, 5-(2-(3,5-dimethoxyphenylamino)-4-(3-(trifluoromethyl)-1H-pyrazol-1-yl)pyrimidin-5-yl)-2-methoxy-N-(methylsulfonyl)nicotinamide] | 97
8 | COc1cc(Nc2ncc(-c3cnc(OC)c(C(=O)NS(C)(=O)=O)c3)c(-n3nc(C(F)(F)F)cc3C)n2)cc(C(F)(F)F)c1 [Example 902, 2-methoxy-5-(2-(3-methoxy-5-(trifluoromethyl)phenylamino)-4-(5-methyl-3-(trifluoromethyl)-1H-pyrazol-1-yl)pyrimidin-5-yl)-N-(methylsulfonyl)nicotinamide] | 97
9 | COc1cc(Nc2ncc(-c3cnc(OC)c(C(=O)NS(C)(=O)=O)c3)c(-n3nc(C(F)(F)F)cc3C)n2)cc(OC)c1 [Example 909, 5-(2-(3,5-dimethoxyphenylamino)-4-(5-methyl-3-(trifluoromethyl)-1H-pyrazol-1-yl)pyrimidin-5-yl)-2-methoxy-N-(methylsulfonyl)nicotinamide] | 100
10 | COc1cc(Cl)c(C)cc1Nc1ncc(-c2cccc(/C=C/C(=O)O)c2)c(NCCCN(C)C)n1 [Example 911, (E)-3-(3-(2-(4-chloro-2-methoxy-5-methylphenylamino)-4-(3-(dimethylamino)propylamino)pyrimidin-5-yl)phenyl)acrylic acid] | 58
11 | COCCCNc1nc(Nc2ccc(F)c(Cl)c2)ncc1-c1nc(C(=O)O)cs1 [Example 912, 2-(2-(3-chloro-4-fluorophenylamino)-4-(3-methoxypropylamino)pyrimidin-5-yl)thiazol-4-carboxylic acid] | 99
12 | COc1cc(Nc2ncc(-c3cncc(C(=O)O)c3)c(-n3nc(C(F)(F)F)cc3C)n2)cc(C(F)(F)F)c1 [Example 913, 5-(2-(3-methoxy-5-(trifluoromethyl)phenylamino)-4-(5-methyl-3-(trifluoromethyl)-1H-pyrazol-1-yl)pyrimidin-5-yl)nicotinic acid] | 100
13 | COc1cc(F)cc(Nc2ncc(-c3cncc(C(=O)O)c3)c(-n3ccc(C(F)(F)F)n3)n2)c1 [Example 914, 5-(2-(3-fluoro-5-methoxyphenylamino)-4-(3-(trifluoromthyl)-1H-pyrazol-1-yl)pyrimidin-5-yl)nicotinic acid] | 100
14 | COc1cc(F)cc(Nc2ncc(-c3cnc(OC)c(C(=O)O)c3)c(-n3nc(C(F)(F)F)cc3C)n2)c1 [Example 915, 5-(2-(3-fluoro-5-methoxyphenylamino)-4-(5-methyl-3-(trifluoromethyl)-1H-pyrazol-1-yl)pyrimidin-5-yl)-2-methoxynicotinic acid] | 100
15 | COc1cc(F)cc(Nc2ncc(-c3cncc(C(=O)O)c3)c(-n3nc(C(F)(F)F)cc3C)n2)c1 [Example 916, 5-(2-(3-fluoro-5-methoxyphenylamino)-4-(5-methyl-3-(trifluoromethyl)-1H-pyrazol-1-yl)pyrimidin-5-yl)nicotinic acid] | 99
16 | COc1ncc(-c2cnc(Nc3cc(Cl)cc(C#N)c3)nc2-n2ccc(C(F)(F)F)n2)cc1C(=O)O [Example 917, 5-(2-(3-chloro-5-cyanophenylamino)-4-(3-(trifluoromethyl)-1H-pyrazol-1-yl)pyrimidin-5-yl)-2-methoxynicotinic acid] | 100
17 | COc1cc(Nc2ncc(-c3cc(C(=O)O)c(=O)n(C)c3)c(-n3nc(C(F)(F)F)cc3C)n2)cc(OC)c1 [Example 918, 5-(2-(3,5-dimethoxyphenylamino)-4-(5-methyl-3-(trifluoromnethyl)-1H-pyrazol-1-yl)poyrimidin-5-yl)-1-methyl-2-oxo-1,2-dihydropyridine-3-carboxylic acid] | 100
18 | CCn1cc(-c2cnc(Nc3cc(OC)cc(OC)c3)nc2-n2nc(C(F)(F)F)cc2C)cc(C(=O)O)c1=O [Example 919, 5-(2-(3,5-dimethoxyphenylamino)-4-(5-methyl-3-(trifluoromethyl)-1H-pyrazol-1-yl)pyrimidin-5-yl)-1-ethyl-2-oxo-1,2-dihydropyridine-3-carboxylic acid] | 99
19 | COc1cc(F)cc(Nc2ncc(-c3cc(C(=O)O)c(=O)n(C)c3)c(-n3ccc(C(F)(F)F)n3)n2)c1 [Example 920, 5-(2-(3-fluoro-5-methoxyphenylamino)-4-(3-(trifluoromethyl)-1H-pyrazol-1-yl)pyrimidin-5-yl)-1-methyl-2-oxo-1,2-dihydropyridine-3-carboxylic acid] | 100
20 | COc1cc(F)cc(Nc2ncc(-c3cc(C(=O)O)c(=O)n(C)c3)c(-n3nc(C(F)(F)F)cc3C)n2)c1 [Example 921, 5-(2-(3-fluoro-5-methoxyphenylamino)-4-(5-methyl-3-(trifluoromethyl)-1H-pyrazol-1-yl)pyrimidin-5-yl)-1-methyl-2-oxo-1,2-dihydropyridine-3-carboxylic acid] | 99
21 | Cc1cc(C)cc(Nc2ncc(-c3cc(C(=O)O)c(=O)n(C)c3)c(-n3ccc(C(F)(F)F)n3)n2)c1 [Example 922, 5-(2-(3,5-dimethylphenylamino)-4-(3-(trifluoromethyl)-1H-pyrazol-1-yl)pyrimidin-5-yl)-1-methyl-2-oxo-1,2-dihydropyridine-3-carboxylic acid] | 100
22 | COc1cc(F)cc(Nc2ncc(-c3cnc(OC)c(C(=O)O)c3)c(-n3ccc(C(F)(F)F)n3)n2)c1 [Example 923, 5-(2-(3-fluoro-5-methoxyphenylamino)-4-(3-(trifluoromethyl)-1H-pyrazol-1-yl)pyrimidin-5-yl)-2-methoxynicotinic acid] | 100
23 | Cc1cc(C(F)(F)F)nn1-c1nc(Nc2ccc(F)c(Cl)c2)ncc1-c1cncc(C(N)=O)c1 [Example 924, 5-(2-(3-chloro-4-fluorophenylamino)-4-(5-methyl-3-(trifluoromethyl)-1H-pyrazol-1-yl)pyrimidin-5-yl)nicotinamide] | 97
24 | Cc1cc(C(F)(F)F)nn1-c1nc(Nc2ccc(F)c(Cl)c2)ncc1-c1cncc(C(=O)NCCNS(C)(=O)=O)c1 [Example 925, 5-(2-(3-chloro-4-fluorophenylamino)-4-(5-methyl-3-(trifluoromethyl)-1H-pyrazol-1-yl)pyrimidin-5-yl)-N-(2-(methylsulfonamido)ethyl)nictinamide] | 88
25 | Cc1cc(C(F)(F)F)nn1-c1nc(Nc2ccc(F)c(Cl)c2)ncc1-c1cncc(C(=O)NCCS(C)(=O)=O)c1 [Example 926, 5-(2-(3-chloro-4-fluorophenylamino)-4-(5-methyl-3-(trifluoromethyl)-1H-pyrazol-1-yl)pyrimidin-5-yl)-N-(2-(methylsulfonyl)ethyl)nicotinamide] | 100
26 | Cc1cc(C(F)(F)F)nn1-c1nc(Nc2ccc(F)c(Cl)c2)ncc1-c1cncc(C(=O)NCCO)c1 [Example 927, 5-(2-(3-chloro-4-fluorophenylamino)-4-(5-methyl-3-(trifluoromethyl)-1H-pyrazol-1-yl)pyrimidin-5-yl)-N-(2-hydroxyethyl)nicotinamide] | 98
27 | Cc1cc(C(F)(F)F)nn1-c1nc(Nc2ccc(F)c(Cl)c2)ncc1-c1cncc(C(=O)NCCN2CCN(C)CC2)c1 [Example 928, 5-(2-(3-chloro-4-fluorophenylamino)-4-(5-methyl-3-(trifluoromethyl)-1H-pyrazol-1-yl)pyrimidin-5-yl)-N-(2-(4-methylpiperazin-1-yl)ethyl)nicotinamide] | 85
28 | Cc1noc(CCNC(=O)c2cncc(-c3cnc(Nc4ccc(F)c(Cl)c4)nc3-n3nc(C(F)(F)F)cc3C)c2)n1 [Example 929, 5-(2-(3-chloro-4-fluorophenylamino)-4-(5-methyl-3-(trifluoromethyl)-1H-pyrazol-1-yl)pyrimidin-5-yl)-N-(2-(3-methyl-1,2,4-oxadiazol-5-yl)ethyl)nicotinamide] | 82
